Laboratory results reported in ChEMBL document CHEMBL3137667, “[Drug-induced liver injury; fourteenth updated edition of the bibliographic database of liver injuries and related drugs]” (Gastroenterol Clin Biol, 2004).

Columns and labels:
[1] = human, serum
[2] = human
[3] = human, serum, 4383 h
[4] = Presence of at least one case with successful reintroduction. [column 'REINT' in source]; settings: human
[5] = human; remark: listed apart in the source
[6] = Highest frequency of acute liver toxicity observed during clinical trials, expressed as a percentage. [column '% AIGUE' in source]; settings: human
[7] = human; remark: listed apart in the source
[8] = human; remark: listed apart in the source
[9] = human; remark: listed apart in the source
[10] = Comments (NB not yet translated). [column 'COMMENTAIRES' in source]; settings: human
[11] = human; remark: listed apart in the source
[12] = human; remark: listed apart in the source
[13] = human; remark: listed apart in the source
[14] = Proposed mechanism(s) of liver damage. [column 'MEC' in source]; settings: human
[15] = human, serum; remark: listed apart in the source
[16] = Times to onset, minimal and maximal, observed in the indexed observations. [column 'DELAI' in source]; settings: human
[17] = Highest frequency of moderate liver toxicity observed during clinical trials, expressed as a percentage. [column '% BIOL' in source]; settings: human
[18] = human; remark: listed apart in the source
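For Hepatotoxicity (association with vascular disease) in this document: count of indexed literature references reporting vascular liver injury in humans, e.g. peliosis hepatitis, hepatic veno-occlusive disease or Budd-Chiari syndrome.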
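For Hepatotoxicity (benign tumour) in this document: value is a count of indexed literature references citing a benign tumour confirmed by histopathology.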
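For Hepatotoxicity (choleostasis) in this document: human cholestatic liver injury, shown by histopathology or by peak ALT or AST elevation over alkaline phosphatase ratio below 2, value counts indexed literature reports.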
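For Hepatotoxicity (chronic liver disease) in this document: chronic liver injury confirmed by histopathology or persistently raised serum aminotransferase activity beyond 6 months, value given as the count of indexed literature references.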
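For Hepatotoxicity (cirrhosis) in this document: value is a count of indexed literature references reporting cirrhosis confirmed by histopathology.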
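For Hepatotoxicity (cytolytic) in this document: human cytolytic liver injury, shown by histopathology or by a ratio above 5 of peak ALT or AST elevation to alkaline phosphatase elevation, value counts indexed references.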
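For Hepatotoxicity (granulomatous hepatitis) in this document: value is a count of indexed literature references reporting granulomatous liver disease confirmed by histopathology.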
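For Hepatotoxicity (malignant tumour) in this document: malignant tumour confirmed by histopathology, value gives the count of indexed literature references reporting it.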
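For Hepatotoxicity (severe hepatitis) in this document: human clinical data: severe hepatitis, meaning potentially life-threatening liver failure or clinically observed cases, the value counts how many indexed literature references report it.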
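For Hepatotoxicity (steatosis) in this document: steatosis confirmed by histopathology, value is the count of indexed references.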

Nc1ccc(S(=O)(=O)c2ccc(N)cc2)cc1 [DAPSONE]
Hepatotoxicity (moderate) [1]: 10 | Hepatotoxicity (cirrhosis) [2]: 0 | Hepatotoxicity (chronic liver disease) [3]: 0 | Hepatotoxicity (successful reintroduction) [4]: yes | Hepatotoxicity (granulomatous hepatitis) ([5]; Liver): 3 | Hepatotoxicity (acute) ([6]; Liver): 5% | Hepatotoxicity (malignant tumour) [7]: 0 | Hepatotoxicity (severe hepatitis) ([8]; Liver): 6 | Hepatotoxicity (steatosis) [9]: 0 | Hepatotoxicity (comment) [10]: DUCTOPENIE | Hepatotoxicity (cytolytic) ([11]; Liver): 15 | Hepatotoxicity (benign tumour) [12]: 0 | Hepatotoxicity (association with vascular disease) [13]: 0 | Hepatotoxicity (mechanism) ([14]; Liver): Allergic, Dose-dependant | Hepatotoxicity (acute) [15]: 33 | Hepatotoxicity (time to onset) [16]: 1 week - 1.5 years | Hepatotoxicity (moderate) ([17]; Liver): 20% | Hepatotoxicity (choleostasis) ([18]; Liver): 13

CN1C(=O)CN=C(c2ccccc2)c2cc(Cl)ccc21 [DIAZEPAM]
Hepatotoxicity (moderate) [1]: 1 | Hepatotoxicity (cirrhosis) [2]: 0 | Hepatotoxicity (chronic liver disease) [3]: 0 | Hepatotoxicity (successful reintroduction) [4]: yes | Hepatotoxicity (granulomatous hepatitis) [5]: 1 | Hepatotoxicity (acute) [6]: 0% | Hepatotoxicity (malignant tumour) [7]: 0 | Hepatotoxicity (severe hepatitis) [8]: 1 | Hepatotoxicity (steatosis) [9]: 0 | Hepatotoxicity (comment) [10]: AC_ANTI-N/-M #CBP | Hepatotoxicity (cytolytic) [11]: 3 | Hepatotoxicity (benign tumour) [12]: 0 | Hepatotoxicity (association with vascular disease) [13]: 0 | Hepatotoxicity (mechanism) [14]: Allergic | Hepatotoxicity (acute) [15]: 12 | Hepatotoxicity (time to onset) [16]: 2 days - 9 years | Hepatotoxicity (moderate) [17]: 7.1% | Hepatotoxicity (choleostasis) [18]: 9

O=c1[nH]cnc2c1ncn2[C@H]1CC[C@@H](CO)O1 [DIDANOSINE]
Hepatotoxicity (moderate) [1]: 18 | Hepatotoxicity (cirrhosis) [2]: 1 | Hepatotoxicity (chronic liver disease) [3]: 1 | Hepatotoxicity (successful reintroduction) [4]: yes | Hepatotoxicity (granulomatous hepatitis) [5]: 0 | Hepatotoxicity (acute) [6]: 12.5% | Hepatotoxicity (malignant tumour) [7]: 0 | Hepatotoxicity (severe hepatitis) [8]: 13 | Hepatotoxicity (steatosis) [9]: 20 | Hepatotoxicity (comment) [10]: REACTIVATION_HVB/HVC I/PARACETAMOL | Hepatotoxicity (cytolytic) [11]: 21 | Hepatotoxicity (benign tumour) [12]: 0 | Hepatotoxicity (association with vascular disease) [13]: 0 | Hepatotoxicity (mechanism) [14]: Dose-dependant, Mitochondrial toxicity | Hepatotoxicity (acute) [15]: 27 | Hepatotoxicity (time to onset) [16]: 5 days - 8 years | Hepatotoxicity (moderate) [17]: 38.1% | Hepatotoxicity (choleostasis) [18]: 6

CCCCOCC(CN1C(=O)N(CC(COCCCC)OC(N)=O)C(=O)C(CC)(c2ccccc2)C1=O)OC(N)=O (stereo not drawn) [DIFEBARBAMATE]
Hepatotoxicity (moderate) [1]: 2 | Hepatotoxicity (cirrhosis) [2]: 0 | Hepatotoxicity (chronic liver disease) [3]: 0 | Hepatotoxicity (successful reintroduction) [4]: yes | Hepatotoxicity (granulomatous hepatitis) [5]: 1 | Hepatotoxicity (acute) [6]: 0% | Hepatotoxicity (malignant tumour) [7]: 0 | Hepatotoxicity (severe hepatitis) [8]: 5 | Hepatotoxicity (steatosis) [9]: 1 | Hepatotoxicity (comment) [10]: AC_ANTI-N/-ML I/PAROXETINE | Hepatotoxicity (cytolytic) [11]: 9 | Hepatotoxicity (benign tumour) [12]: 0 | Hepatotoxicity (association with vascular disease) [13]: 0 | Hepatotoxicity (mechanism) [14]: Allergic | Hepatotoxicity (acute) [15]: 9 | Hepatotoxicity (time to onset) [16]: 8 days - 15 months | Hepatotoxicity (moderate) [17]: 0% | Hepatotoxicity (choleostasis) [18]: 1

NNc1nnc(NN)c2ccccc12 [DIHYDRALAZINE]
Hepatotoxicity (moderate) [1]: 0 | Hepatotoxicity (cirrhosis) [2]: 0 | Hepatotoxicity (chronic liver disease) [3]: 4 | Hepatotoxicity (successful reintroduction) [4]: yes | Hepatotoxicity (granulomatous hepatitis) [5]: 0 | Hepatotoxicity (acute) [6]: 0.1% | Hepatotoxicity (malignant tumour) [7]: 0 | Hepatotoxicity (severe hepatitis) [8]: 1 | Hepatotoxicity (steatosis) [9]: 1 | Hepatotoxicity (comment) [10]: AC_ANTI-MF/-M/-N/-CYP1A2 | Hepatotoxicity (cytolytic) [11]: 17 | Hepatotoxicity (benign tumour) [12]: 0 | Hepatotoxicity (association with vascular disease) [13]: 0 | Hepatotoxicity (mechanism) [14]: Allergic | Hepatotoxicity (acute) [15]: 21 | Hepatotoxicity (time to onset) [16]: 2 days - 3 years | Hepatotoxicity (moderate) [17]: 0% | Hepatotoxicity (choleostasis) [18]: 5

COc1ccc([C@@H]2Sc3ccccc3N(CCN(C)C)C(=O)[C@@H]2OC(C)=O)cc1 [DILTIAZEM]
Hepatotoxicity (moderate) [1]: 20 | Hepatotoxicity (cirrhosis) [2]: 0 | Hepatotoxicity (chronic liver disease) [3]: 0 | Hepatotoxicity (successful reintroduction) [4]: yes | Hepatotoxicity (granulomatous hepatitis) [5]: 2 | Hepatotoxicity (acute) [6]: 2.4% | Hepatotoxicity (malignant tumour) [7]: 0 | Hepatotoxicity (severe hepatitis) [8]: 1 | Hepatotoxicity (steatosis) [9]: 1 | Hepatotoxicity (comment) [10]: RC/AMLODIPINE | Hepatotoxicity (cytolytic) [11]: 6 | Hepatotoxicity (benign tumour) [12]: 0 | Hepatotoxicity (association with vascular disease) [13]: 0 | Hepatotoxicity (mechanism) [14]: Allergic | Hepatotoxicity (acute) [15]: 11 | Hepatotoxicity (time to onset) [16]: 1 day - 5 months | Hepatotoxicity (moderate) [17]: 6% | Hepatotoxicity (choleostasis) [18]: 5

CN(C)CCC=C1c2ccccc2COc2ccccc21 [DOXEPIN]
Hepatotoxicity (moderate) [1]: 3 | Hepatotoxicity (cirrhosis) [2]: 0 | Hepatotoxicity (chronic liver disease) [3]: 0 | Hepatotoxicity (successful reintroduction) [4]: yes | Hepatotoxicity (granulomatous hepatitis) [5]: 0 | Hepatotoxicity (acute) [6]: 0% | Hepatotoxicity (malignant tumour) [7]: 0 | Hepatotoxicity (severe hepatitis) [8]: 0 | Hepatotoxicity (steatosis) [9]: 0 | Hepatotoxicity (comment) [10]: AC_ANTI-ML | Hepatotoxicity (cytolytic) [11]: 2 | Hepatotoxicity (benign tumour) [12]: 0 | Hepatotoxicity (association with vascular disease) [13]: 0 | Hepatotoxicity (mechanism) [14]: Allergic | Hepatotoxicity (acute) [15]: 2 | Hepatotoxicity (time to onset) [16]: 1 week | Hepatotoxicity (moderate) [17]: 33.3% | Hepatotoxicity (choleostasis) [18]: 1

CC[C@H]1OC(=O)[C@H](C)[C@@H](O[C@H]2C[C@@](C)(OC)[C@@H](O)[C@H](C)O2)[C@H](C)[C@@H](O[C@@H]2O[C@H](C)C[C@H](N(C)C)[C@H]2O)[C@](C)(O)C[C@@H](C)C(=O)[C@H](C)[C@@H](O)[C@]1(C)O [ERYTHROMYCIN]
Hepatotoxicity (moderate) [1]: 19 | Hepatotoxicity (cirrhosis) [2]: 0 | Hepatotoxicity (chronic liver disease) [3]: 0 | Hepatotoxicity (successful reintroduction) [4]: yes | Hepatotoxicity (granulomatous hepatitis) [5]: 0 | Hepatotoxicity (acute) [6]: 3% | Hepatotoxicity (malignant tumour) [7]: 0 | Hepatotoxicity (severe hepatitis) [8]: 1 | Hepatotoxicity (steatosis) [9]: 0 | Hepatotoxicity (comment) [10]: CHOLANGITE #CBP RC/AMOXICILLINE/TROLEANDOMYCINE | Hepatotoxicity (cytolytic) [11]: 20 | Hepatotoxicity (benign tumour) [12]: 0 | Hepatotoxicity (association with vascular disease) [13]: 0 | Hepatotoxicity (mechanism) [14]: Allergic, Toxic | Hepatotoxicity (acute) [15]: 72 | Hepatotoxicity (time to onset) [16]: 12 hours - 5 weeks | Hepatotoxicity (moderate) [17]: 38% | Hepatotoxicity (choleostasis) [18]: 55

CCCCOCC(CN1C(=O)NC(=O)C(CC)(c2ccccc2)C1=O)OC(N)=O (stereo not drawn) [FEBARBAMATE]
Hepatotoxicity (moderate) [1]: 2 | Hepatotoxicity (cirrhosis) [2]: 0 | Hepatotoxicity (chronic liver disease) [3]: 0 | Hepatotoxicity (successful reintroduction) [4]: yes | Hepatotoxicity (granulomatous hepatitis) [5]: 1 | Hepatotoxicity (acute) [6]: 0% | Hepatotoxicity (malignant tumour) [7]: 0 | Hepatotoxicity (severe hepatitis) [8]: 5 | Hepatotoxicity (steatosis) [9]: 1 | Hepatotoxicity (comment) [10]: AC_ANTI-N/-LM I/PAROXETINE | Hepatotoxicity (cytolytic) [11]: 9 | Hepatotoxicity (benign tumour) [12]: 0 | Hepatotoxicity (association with vascular disease) [13]: 0 | Hepatotoxicity (mechanism) [14]: Allergic | Hepatotoxicity (acute) [15]: 9 | Hepatotoxicity (time to onset) [16]: 8 days - 15 months | Hepatotoxicity (moderate) [17]: 0% | Hepatotoxicity (choleostasis) [18]: 1

CC(C)OC(=O)C(C)(C)Oc1ccc(C(=O)c2ccc(Cl)cc2)cc1 [FENOFIBRATE]
Hepatotoxicity (moderate) [1]: 27 | Hepatotoxicity (cirrhosis) [2]: 1 | Hepatotoxicity (chronic liver disease) [3]: 4 | Hepatotoxicity (successful reintroduction) [4]: yes | Hepatotoxicity (granulomatous hepatitis) [5]: 0 | Hepatotoxicity (acute) ([6]; Liver): 2.7% | Hepatotoxicity (malignant tumour) [7]: 0 | Hepatotoxicity (severe hepatitis) ([8]; Liver): 0 | Hepatotoxicity (steatosis) [9]: 0 | Hepatotoxicity (comment) [10]: RC/CLOFIBRATE CHOLESTASE_PROLONGEE DUCTOPENIE AC_ANTI-ML/-N | Hepatotoxicity (cytolytic) [11]: 11 | Hepatotoxicity (benign tumour) [12]: 0 | Hepatotoxicity (association with vascular disease) [13]: 0 | Hepatotoxicity (mechanism) [14]: Allergic | Hepatotoxicity (acute) [15]: 13 | Hepatotoxicity (time to onset) [16]: 1 day - 3 years | Hepatotoxicity (moderate) ([17]; Liver): 52.9% | Hepatotoxicity (choleostasis) [18]: 5

O=C(OCC(O)CO)c1ccccc1Nc1ccnc2cc(Cl)ccc12 (stereo not drawn) [GLAFENINE]
Hepatotoxicity (moderate) [1]: 2 | Hepatotoxicity (cirrhosis) [2]: 5 | Hepatotoxicity (chronic liver disease) [3]: 5 | Hepatotoxicity (successful reintroduction) [4]: yes | Hepatotoxicity (granulomatous hepatitis) ([5]; Liver): 0 | Hepatotoxicity (acute) ([6]; Liver): 0% | Hepatotoxicity (malignant tumour) [7]: 0 | Hepatotoxicity (severe hepatitis) ([8]; Liver): 7 | Hepatotoxicity (steatosis) [9]: 0 | Hepatotoxicity (comment) [10]: LITHIASE | Hepatotoxicity (cytolytic) ([11]; Liver): 12 | Hepatotoxicity (benign tumour) [12]: 0 | Hepatotoxicity (association with vascular disease) [13]: 0 | Hepatotoxicity (mechanism) ([14]; Liver): Allergic | Hepatotoxicity (acute) [15]: 14 | Hepatotoxicity (time to onset) [16]: 2 days - 8 months | Hepatotoxicity (moderate) ([17]; Liver): 0% | Hepatotoxicity (choleostasis) ([18]; Liver): 2
